Experimental data reported in ChEMBL document CHEMBL1145395, “De novo design of selective antibiotic peptides by incorporation of unnatural amino acids” (J Med Chem, 2007).
≈ marks a conversion by molar mass, not a printed value. Calls of active or inactive are those of the source. No cut-off for these calls is given here. Non-standard residues stand in square brackets, D forms with d. Residues, ends and D or L forms follow the SMILES beside them. ξ: configuration not given here. Pro(3ξ,4ξ-(CH2)4) = O=C(O)[C@H]1NCC2CCCCC21; Pro(3,4-benzo) = O=C(O)[C@H]1NCc2ccccc21; Tic = O=C(O)[C@@H]1Cc2ccccc2CN1; Orn = NCCC[C@H](N)C(=O)O; βAla = NCCC(=O)O

Experiments:
Staphylococcus aureus = assay: Antibacterial activity against methicillin/gentamicin/tetracycline resistant Staphylococcus aureus ATCC 33592; assay type: functional
Salmonella typhimurium = assay: Antibacterial activity against Salmonella Typhimurium ATCC 13311; assay type: functional; conditions: for Activity: Salmonella enterica subsp. enterica serovar Typhimurium; for MIC: Salmonella enterica

With `CSCC[C@H](NC(=O)[C@H](CC(C)C)NC(=O)[C@H](CCC(=O)O)NC(=O)[C@@H]1CCCN1C(=O)[C@H](Cc1ccccc1)NC(=O)[C@H](CCCCN)NC(=O)CNC(=O)[C@H](CC(C)C)NC(=O)CNC(=O)[C@H](Cc1ccccc1)NC(=O)[C@H](CCC(=O)O)NC(=O)[C@H](CCCCN)NC(=O)CNC(=O)[C@H](CC(C)C)NC(=O)CNC(=O)[C@@H]1CCCN1C(=O)[C@H](Cc1ccccc1)NC(=O)[C@H](CCSC)NC(=O)[C@H](CCCCN)NC(=O)CNC(C)=O)C(=O)NCC(=O)N[C@@H](CCC(=O)O)C(=O)N[C@@H](CCCNC(=N)N)C(N)=O` (Ac-GKMFPGLGKEFGLGKFPELMGER-NH2) the Activity (Staphylococcus aureus) was “inactive” and the Activity (Salmonella typhimurium) was “inactive”.
In the case of `CSCC[C@H](NC(=O)[C@H](CC(C)C)NC(=O)[C@H](CCC(=O)O)NC(=O)[C@@H]1CCCN1C(=O)[C@@H]1Cc2ccccc2CN1C(=O)[C@H](CCCCN)NC(=O)CNC(=O)[C@H](CC(C)C)NC(=O)CNC(=O)[C@@H]1C2CCCCC2CN1C(=O)[C@@H]1Cc2ccccc2CN1C(=O)[C@H](CCC(=O)O)NC(=O)[C@H](CCCCN)NC(=O)CNC(=O)[C@H](CC(C)C)NC(=O)CNC(=O)[C@@H]1C2CCCCC2CN1C(=O)[C@@H]1Cc2ccccc2CN1C(=O)[C@H](CCCCN)NC(=O)CNC(C)=O)C(=O)NCC(=O)N[C@@H](CCC(=O)O)C(=O)N[C@@H](CCCNC(=N)N)C(N)=O` (stereo partly drawn) (Ac-GK[Tic][Pro(3ξ,4ξ-(CH2)4)]GLGKE[Tic][Pro(3ξ,4ξ-(CH2)4)]GLGK[Tic]PELMGER-NH2), the Activity (Staphylococcus aureus) is reported as “inactive” and the Activity (Salmonella typhimurium) is reported as “inactive”.
With `CSCC[C@H](NC(=O)[C@H](CC(C)C)NC(=O)[C@H](CCC(=O)O)NC(=O)[C@@H]1c2ccccc2CN1C(=O)[C@@H]1Cc2ccccc2CN1C(=O)[C@H](Cc1ccccc1)NC(=O)CCNC(=O)[C@@H]1c2ccccc2CN1C(=O)[C@@H]1Cc2ccccc2CN1C(=O)[C@H](CCCCN)NC(=O)CCNC(=O)[C@@H]1c2ccccc2CN1C(=O)[C@@H]1Cc2ccccc2CN1C(=O)[C@H](Cc1ccccc1)NC(=O)CCNC(=O)[C@@H]1c2ccccc2CN1C(=O)[C@@H]1Cc2ccccc2CN1C(=O)[C@H](CCCCN)NC(=O)CCNC(=O)[C@@H]1c2ccccc2CN1C(=O)[C@@H]1Cc2ccccc2CN1C(=O)[C@H](CC(C)C)NC(=O)CNC(=O)[C@H](CCCCN)NC(=O)CN)C(=O)N[C@@H](CC(N)=O)C(=O)N[C@@H](CO)C(N)=O` (H-GKGL[Tic][Pro(3,4-benzo)][βAla]K[Tic][Pro(3,4-benzo)][βAla]F[Tic][Pro(3,4-benzo)][βAla]K[Tic][Pro(3,4-benzo)][βAla]F[Tic][Pro(3,4-benzo)]ELMNS-NH2) the Activity (Staphylococcus aureus) was “inactive” and the Activity (Salmonella typhimurium) was “inactive”.
`CC(C)C[C@H](NC(=O)CNC(=O)[C@H](CCCCN)NC(=O)CN)C(=O)N1Cc2ccccc2C[C@H]1C(=O)N1CC2CCCCC2[C@H]1C(=O)NCC(=O)N[C@@H](CCCCN)C(=O)N1Cc2ccccc2C[C@H]1C(=O)N1CC2CCCCC2[C@H]1C(=O)NCC(=O)N[C@@H](Cc1ccccc1)C(=O)N1Cc2ccccc2C[C@H]1C(=O)N1CC2CCCCC2[C@H]1C(=O)NCC(=O)N[C@@H](CCCCN)C(=O)N1Cc2ccccc2C[C@H]1C(=O)N1CC2CCCCC2[C@H]1C(=O)NCC(=O)N[C@@H](Cc1ccccc1)C(=O)N1Cc2ccccc2C[C@H]1C(=O)N1CC2CCCCC2[C@H]1C(=O)NCC(=O)N[C@@H](CCCCN)C(=O)N1Cc2ccccc2C[C@H]1C(=O)N1CC2CCCCC2[C@H]1C(=O)NCC(=O)N[C@@H](CCCCN)C(=O)N[C@@H](CCCNC(=N)N)C(N)=O` (stereo partly drawn) (H-GKGL[Tic][Pro(3ξ,4ξ-(CH2)4)]GK[Tic][Pro(3ξ,4ξ-(CH2)4)]GF[Tic][Pro(3ξ,4ξ-(CH2)4)]GK[Tic][Pro(3ξ,4ξ-(CH2)4)]GF[Tic][Pro(3ξ,4ξ-(CH2)4)]GK[Tic][Pro(3ξ,4ξ-(CH2)4)]GKR-NH2) showed an MIC (Staphylococcus aureus) of 10 µM (≈ 35.4 µg/mL).
`CC(C)C[C@H](NC(=O)CNC(=O)[C@H](CCCCN)NC(=O)CN)C(=O)N1Cc2ccccc2C[C@H]1C(=O)N1CC2CCCCC2[C@H]1C(=O)NCC(=O)N[C@@H](CCCCN)C(=O)N1Cc2ccccc2C[C@H]1C(=O)N1CC2CCCCC2[C@H]1C(=O)NCC(=O)N[C@@H](CC(C)C)C(=O)N1Cc2ccccc2C[C@H]1C(=O)N1CC2CCCCC2[C@H]1C(=O)NCC(=O)N[C@@H](CCCCN)C(=O)N1Cc2ccccc2C[C@H]1C(=O)N1CC2CCCCC2[C@H]1C(=O)NCC(=O)N[C@@H](CC(C)C)C(=O)N1Cc2ccccc2C[C@H]1C(=O)N1CC2CCCCC2[C@H]1C(=O)NCC(=O)N[C@@H](CCCCN)C(=O)N1Cc2ccccc2C[C@H]1C(=O)N1CC2CCCCC2[C@H]1C(=O)NCC(=O)N[C@@H](CCCCN)C(=O)N[C@@H](CCCNC(=N)N)C(N)=O` (stereo partly drawn) (H-GKGL[Tic][Pro(3ξ,4ξ-(CH2)4)]GK[Tic][Pro(3ξ,4ξ-(CH2)4)]GL[Tic][Pro(3ξ,4ξ-(CH2)4)]GK[Tic][Pro(3ξ,4ξ-(CH2)4)]GL[Tic][Pro(3ξ,4ξ-(CH2)4)]GK[Tic][Pro(3ξ,4ξ-(CH2)4)]GKR-NH2) was tested, and the MIC (Staphylococcus aureus) was 10 µM (≈ 34.7 µg/mL) and the MIC (Salmonella typhimurium) was 100 µM (≈ 347 µg/mL).
`CC(C)C[C@H](NC(=O)CNC(=O)[C@H](CCCCN)NC(=O)CN)C(=O)N1Cc2ccccc2C[C@H]1C(=O)N1CC2CCCCC2[C@H]1C(=O)NCC(=O)N[C@@H](CCCN)C(=O)N1Cc2ccccc2C[C@H]1C(=O)N1CC2CCCCC2[C@H]1C(=O)NCC(=O)N[C@@H](Cc1ccccc1)C(=O)N1Cc2ccccc2C[C@H]1C(=O)N1CC2CCCCC2[C@H]1C(=O)NCC(=O)N[C@@H](CCCCN)C(=O)N1Cc2ccccc2C[C@H]1C(=O)N1CC2CCCCC2[C@H]1C(=O)NCC(=O)N[C@@H](Cc1ccccc1)C(=O)N1Cc2ccccc2C[C@H]1C(=O)N1CC2CCCCC2[C@H]1C(=O)NCC(=O)N[C@@H](CCCCN)C(=O)N1Cc2ccccc2C[C@H]1C(=O)N1CC2CCCCC2[C@H]1C(=O)NCC(=O)N[C@@H](CCCCN)C(=O)N[C@@H](CCCNC(=N)N)C(N)=O` (stereo partly drawn) (H-GKGL[Tic][Pro(3ξ,4ξ-(CH2)4)]G[Orn][Tic][Pro(3ξ,4ξ-(CH2)4)]GF[Tic][Pro(3ξ,4ξ-(CH2)4)]GK[Tic][Pro(3ξ,4ξ-(CH2)4)]GF[Tic][Pro(3ξ,4ξ-(CH2)4)]GK[Tic][Pro(3ξ,4ξ-(CH2)4)]GKR-NH2) was tested, and the Activity (Salmonella typhimurium) was “inactive”.
For `CSCC[C@H](NC(=O)[C@H](CC(C)C)NC(=O)[C@H](CCC(=O)O)NC(=O)[C@@H]1CCCN1C(=O)[C@H](Cc1ccccc1)NC(=O)[C@H](CCCCN)NC(=O)CNC(=O)[C@H](CC(C)C)NC(=O)CNC(=O)[C@@H]1CCCN1C(=O)[C@H](Cc1ccccc1)NC(=O)[C@H](CCCCN)NC(=O)CNC(=O)[C@H](CC(C)C)NC(=O)CNC(=O)[C@@H]1CCCN1C(=O)[C@H](Cc1ccccc1)NC(=O)[C@H](CCSC)NC(=O)[C@H](CCCCN)NC(=O)CN)C(=O)NCC(=O)N[C@@H](CCCNC(=N)N)C(N)=O` (H-GKMFPGLGKFPGLGKFPELMGR-NH2), the Activity (Staphylococcus aureus) was “inactive” and the Activity (Salmonella typhimurium) was “inactive”.
Compound `CC[C@H](C)[C@H](NC(=O)CN)C(=O)NCC(=O)N[C@@H](CCCCN)C(=O)N[C@@H](Cc1ccccc1)C(=O)N[C@@H](CC(C)C)C(=O)N[C@@H](Cc1cnc[nH]1)C(=O)N[C@@H](CO)C(=O)N[C@@H](C)C(=O)NCC(=O)N[C@@H](CCCCN)C(=O)N[C@@H](Cc1ccccc1)C(=O)NCC(=O)N[C@@H](CCCCN)C(=O)N[C@@H](C)C(=O)N[C@@H](Cc1ccccc1)C(=O)N[C@H](C(=O)NCC(=O)N[C@@H](CCC(=O)O)C(=O)N[C@H](C(=O)N[C@@H](CCSC)C(=O)N[C@@H](CCCCN)C(=O)N[C@@H](CO)C(N)=O)[C@@H](C)CC)C(C)C` [MAGAININ 1] has an MIC (Salmonella typhimurium) of 30 µM (≈ 72.3 µg/mL).
